Source: paper PMC11882969 (Nature Communications, 2025)
Several values for one entry are separate records, joined by “and”; a condition that tells them apart may be missing. Equal entries are not always repeated. Marks after values point to notes of the source that are not given here.

Columns and labels:
CB1 (rCB1) = CB1 (rCB1) (Rattus norvegicus, UniProt P20272); experiment: Radioligand competition binding, [3H]-CP-55,940, rat brain membranes
hCB1 [1] = target: T1, hCB1 (Homo sapiens, UniProt P21554); experiment: Lance Ultra cAMP accumulation assay, CHO cells; format: cell-based; design: expressed in transfected cells;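 also: human CB1R stably expressed in CHO cells, ligands co-incubated with forskolin at room temperature, read-out is lowering of forskolin-stimulated cAMP accumulation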
Method: The inhibition of forskolin-stimulated cAMP accumulation assays was carried out using PerkinElmer’s Lance Ultra cAMP kit following the manufacturer’s protocol. In brief, CHO cells stably expressing human CB1R (provided by the lab of Laura Bohn) were harvested by incubation with Versene (ThermoFisher Scientific, Waltham, MA) for 10 min, washed once with Hank’s Balanced Salt Solution, and resuspended in stimulation buffer at ~200 cells/μL density. The ligands at eight different concentrations (0.001-10,000 nM) in stimulation buffer (5 μL) containing forskolin (2 μM final concentration) were added to a 384-well plate followed by the cell suspension (5 μL; ~1000 cells/well). The plate was incubated for 30 min at room temperature. Eu-cAMP tracer (5 μL) and Ulight-anti-cAMP (5 μL) working solutions were then added to each well, and the plate was incubated at room temperature for an additional 60 min. Results were measured on a Perkin-Elmer EnVision plate reader. The EC50 values were determined by nonlinear regression analysis using Graphpad Prism 9 and are expressed as the mean of three experiments, each performed in triplicate.

hCB1 [2] = target: T1, hCB1; experiment: Tango β-arrestin-2 recruitment, HTLA cells, CB1R; format: cell-based; design: expressed in transfected cells; host or cells: HTLA cells (gift of R. Axel), transient transfection
hCB1 [3] = target: T1, hCB1; experiment: bioSensAll ebBRET signaling profiling, hCB1; format: cell-based; design: host or cells: HEK293SL cells, transient PEI transfection

T1 sequence (P21554 whole entry): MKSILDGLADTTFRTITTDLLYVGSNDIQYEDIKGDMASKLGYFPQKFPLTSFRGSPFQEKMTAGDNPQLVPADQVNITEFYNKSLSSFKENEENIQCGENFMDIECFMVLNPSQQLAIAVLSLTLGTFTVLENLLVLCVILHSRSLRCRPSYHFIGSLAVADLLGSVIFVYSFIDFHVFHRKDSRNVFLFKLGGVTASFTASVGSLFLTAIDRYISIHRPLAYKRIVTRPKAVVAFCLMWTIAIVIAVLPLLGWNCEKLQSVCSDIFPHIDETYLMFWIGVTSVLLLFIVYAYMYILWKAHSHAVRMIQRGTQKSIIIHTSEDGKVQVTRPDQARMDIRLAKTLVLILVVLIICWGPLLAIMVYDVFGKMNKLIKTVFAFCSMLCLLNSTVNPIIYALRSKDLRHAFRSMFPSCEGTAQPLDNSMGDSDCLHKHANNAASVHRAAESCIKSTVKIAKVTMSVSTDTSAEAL
Chain of CB1 (rCB1) (P20272 whole entry): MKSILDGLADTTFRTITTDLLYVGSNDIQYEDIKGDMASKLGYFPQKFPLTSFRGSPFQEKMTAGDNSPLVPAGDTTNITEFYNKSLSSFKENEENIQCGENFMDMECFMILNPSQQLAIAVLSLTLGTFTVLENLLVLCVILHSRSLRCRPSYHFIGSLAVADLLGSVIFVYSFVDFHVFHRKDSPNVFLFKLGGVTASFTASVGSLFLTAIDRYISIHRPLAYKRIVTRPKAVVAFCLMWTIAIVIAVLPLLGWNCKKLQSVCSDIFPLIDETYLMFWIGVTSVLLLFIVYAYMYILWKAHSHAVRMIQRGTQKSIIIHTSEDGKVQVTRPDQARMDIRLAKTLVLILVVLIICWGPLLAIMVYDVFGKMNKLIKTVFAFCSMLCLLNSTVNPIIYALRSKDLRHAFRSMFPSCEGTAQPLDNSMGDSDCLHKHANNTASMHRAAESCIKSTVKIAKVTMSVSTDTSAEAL

Question: Which results are given for `COC(=O)C(C)(NC(=O)c1cc(C)n(-c2cccc(C(F)(F)F)c2)n1)c1cccs1` (centres unmarked) [‘4042]?
Answer: pKi [95% CI] (CB1 (rCB1); rCB1): 8.7 [8.6 – 8.9]; Ki (CB1 (rCB1); read-out: Ki [95% CI], rCB1, [3H]-CP-55,940): 1.9 nM and 1.86 nM; EC50 (hCB1 [1]): 3.3 nM; Lance Ultra cAMP pEC50 (hCB1 [1]): 8.5 [8.3 – 8.7]; Emax (hCB1 [1]; CHO): 78%; Emax (hCB1 [2]; HTLA, hCB1, read-out: Tango ß-arrestin recruitment Emax): 102%; response, replicate values of concentration-response curve (FigS7f) (hCB1 [2]; Log[drug], M = -4.52): 7.067 and -6.331 and 5.4951 and 8.221 and 8.314 and -13.0772 and 26.9747 and 17.871 and 12.4553 and 121.329 and 105.672 and 117.884; response, replicate values of concentration-response curve (FigS7f) (hCB1 [2]; Log[drug], M = -5): -3.086 and 3.974 and -30.8966 and 0.657 and 12.6131 and 6.151 and 33.0168 and 23.9031 and -6.308 and 64.2077 and 47.075 and 77.367; response at Log[drug], M -5 (FigS4e) (hCB1 [2]; Log[drug], M = -5, individual replicates): 105.219 and 109.279 and 117.533 and 125.309 and 97.6126 and 107.099 and 99.9992 and 108.6 and 92.9311 and 106.141 and 96.6922 and 121.582; response, replicate values of concentration-response curve (FigS7f) (hCB1 [2]; Log[drug], M = -5.52): -43.7244 and -3.669 and 10.2865 and 56.4831 and 26.3341 and 31.5757 and 34.4515 and 25.7521 and 21.276 and 49.6996 and 52.3788 and 22.9617; response at Log[drug], M -5.52 (FigS4e) (hCB1 [2]; Log[drug], M = -5.52, individual replicates): 101.394 and 114.732 and 120.488 and 108.55 and 90.8381 and 89.995 and 132.472 and 109.506 and 88.5962 and 99.4965 and 84.8551 and 98.2296; response, replicate values of concentration-response curve (FigS7f) (hCB1 [2]; Log[drug], M = -6): 45.905 and 18.3989 and 8.994 and 37.6798 and 48.3885 and 1.626 and 39.9683 and 51.123 and 11.4551 and 62.3486 and 38.1624 and 52.7798; response at Log[drug], M -6 (FigS4e) (hCB1 [2]; Log[drug], M = -6, individual replicates): 110.2 and 110.608 and 113.923 and 102.851 and 70.7652 and 82.3944 and 91.1468 and 90.7286 and 85.6996 and 85.6798 and 84.3272 and 95.3395; response, replicate values of concentration-response curve (FigS7f) (hCB1 [2]; Log[drug], M = -6.52): 48.7063 and 31.7717 and 10.7428 and 2.793 and 31.788 and 27.608 and 19.4978 and 35.1184 and 41.787 and 72.0632 and 23.3444 and 56.7531; response at Log[drug], M -6.52 (FigS4e) (hCB1 [2]; Log[drug], M = -6.52, individual replicates): 101.401 and 93.7884 and 111.126 and 102.386 and 76.6593 and 76.4337 and 80.9673 and 77.6716 and 90.47 and 82.2224 and 76.8121 and 78.3428; response, replicate values of concentration-response curve (FigS7f) (hCB1 [2]; Log[drug], M = -7): 45.8923 and 39.1109 and -32.4811 and 3.271 and 1.931 and -6.456 and 21.6196 and 13.8396 and 19.3159 and 108.005 and 18.4598 and 4.043; response at Log[drug], M -7 (FigS4e) (hCB1 [2]; Log[drug], M = -7, individual replicates): 101.996 and 90.2881 and 92.9617 and 98.4638 and 67.7319 and 66.2817 and 76.3076 and 71.3692 and 69.3631 and 70.7817 and 73.5528 and 86.8411; response, replicate values of concentration-response curve (FigS7f) (hCB1 [2]; Log[drug], M = -7.52): 6.205 and 16.8525 and 13.7723 and 78.1261 and 25.2327 and 15.4263 and 3.028 and 19.2351 and -2.458 and 66.2308 and 22.6883 and 80.2832; response at Log[drug], M -7.52 (FigS4e) (hCB1 [2]; Log[drug], M = -7.52, individual replicates): 85.8169 and 81.0399 and 77.0438 and 77.8353 and 74.3661 and 62.598 and 69.4576 and 65.014 and 61.4855 and 54.8485 and 65.2396 and 54.8221; response at Log[drug], M -8 (FigS4e) (hCB1 [2]; Log[drug], M = -8, individual replicates): 64.9332 and 70.1108 and 76.4142 and 63.9273 and 43.1923 and 49.5865 and 49.0423 and 55.5064 and 60.3508 and 56.2009 and 53.2123 and 59.8164; response at Log[drug], M -8.52 (FigS4e) (hCB1 [2]; Log[drug], M = -8.52, individual replicates): 34.3417 and 29.1931 and 35.2401 and 27.4328 and 27.4461 and 34.6615 and 20.0846 and 24.5419 and 29.6463 and 23.9316 and 26.0874 and 20.4241; response at Log[drug], M -9 (FigS4e) (hCB1 [2]; Log[drug], M = -9, individual replicates): 11.2308 and 14.9426 and 16.0188 and 14.8879 and 7.81 and 6.201 and 6.046 and 5.165 and 11.416 and 8.011 and 9.8505 and 11.4417; response, replicate values of concentration-response curve (FigS7f) (hCB1 [2]; Log[drug], M = -9.52): -8.017 and 13.4427 and 7.219 and 1.3736; response at Log[drug], M -9.52 (FigS4e) (hCB1 [2]; Log[drug], M = -9.52, individual replicates): 4.318 and 6.954 and 4.569 and 9.019 and 2.48 and 0.9701 and 1.146 and -0.2947 and 2.2712 and 3.563 and 2.22 and 2.613; response, replicate values of concentration-response curve (FigS7f) (hCB1 [2]; Log[drug], M = -10): -5.634 and 19.8566 and -6.166 and -19.951 and 12.6927 and 1.918 and 26.5806 and 27.9648 and -15.2597 and 16.5278 and -42.7439 and -28.9284; response at Log[drug], M -10 (FigS4e) (hCB1 [2]; Log[drug], M = -10, individual replicates): 4.678 and 4.596 and 5.116 and 5.805 and 0.4668 and 1.099 and -0.9271 and 0.03226 and 4.179 and 1.0137 and 3.024 and 3.033; response at Log[drug], M -10.52 (FigS4e) (hCB1 [2]; Log[drug], M = -10.52, individual replicates): 3.333 and 5.039 and 5.463 and 7.136 and 2.136 and 1.073 and 1.405 and 1.689 and 0.06416 and 3.135 and 1.262 and 0.6116; response at Log[drug], M -11 (FigS4e) (hCB1 [2]; Log[drug], M = -11, individual replicates): 2.02 and 1.728 and 3.648 and 1.714 and 2.136 and 0.5313 and 2.282 and 1.392 and 2.442 and 2.186 and 2.656 and 2.784; response at Log[drug], M -11.52 (FigS4e) (hCB1 [2]; Log[drug], M = -11.52, individual replicates): 0.1596 and 0.8162 and 2.015 and 2.59 and 0.7808 and -0.157 and 2.17 and 1.37 and 0.3122 and 1.493 and -1.27 and 0.3892; response at Log[drug], M -12 (FigS4e) (hCB1 [2]; Log[drug], M = -12, individual replicates): -1.281 and 1.1992 and 0.1003 and -0.01824 and -0.4194 and -1.323 and 0.4797 and 1.263 and -0.586 and -0.201 and 1.578 and -0.7913; Tango ß-arrestin recruitment pEC50 (hCB1 [2]; hCB1): 8.0 [7.9 – 8.1]; EC50 (hCB1 [2]; hCB1, read-out: Tango ß-arrestin recruitment EC50): 10.7 nM; Barr2+GRK2 hCB1 (hCB1 [3]; Log [Compound] (M) -4.22186): 92.62* and 120.7*; G13 hCB1 (hCB1 [3]; Log [Compound] (M) -4.22186): 70.6599; G15 hCB1 (hCB1 [3]; Log [Compound] (M) -4.22186): 109.73 and 102.131; Gi1 hCB1 (hCB1 [3]; Log [Compound] (M) -4.22186): 104.966 and 104.552 and 101.354; Gi2 hCB1 (hCB1 [3]; Log [Compound] (M) -4.22186): 114.417 and 105.522; GoB hCB1 (hCB1 [3]; Log [Compound] (M) -4.22186): 107.662 and 102.746 and 100.082; Gq hCB1 (hCB1 [3]; Log [Compound] (M) -4.22186): 1205; Gs hCB1 (hCB1 [3]; Log [Compound] (M) -4.22186): 6574; Barr2+GRK2 hCB1 (hCB1 [3]; Log [Compound] (M) -4.63927): 82.3587 and 72.7006; G13 hCB1 (hCB1 [3]; Log [Compound] (M) -4.63927): 46.7858 and 87.1754; G15 hCB1 (hCB1 [3]; Log [Compound] (M) -4.63927): 108.775 and 92.8459; Gi1 hCB1 (hCB1 [3]; Log [Compound] (M) -4.63927): 101.502 and 110.826 and 98.3137; Gi2 hCB1 (hCB1 [3]; Log [Compound] (M) -4.63927): 122.075 and 85.154; GoB hCB1 (hCB1 [3]; Log [Compound] (M) -4.63927): 110.056 and 106.901 and 98.7991; Gq hCB1 (hCB1 [3]; Log [Compound] (M) -4.63927): 1175
